From patent US12448388B2, “PRMT5 inhibitors and uses thereof” (Gilead Sciences, Inc., priority 2023, dated 2025)

Test system: HCT116 MTAP-deleted cell lines
Experiment: Cell viability assay (CellTiter-Glo, 7 days), HCT116 MTAP-deleted
Format: cell-based
Conditions: Homo sapiens, HCT-116; cell viability assay, HCT116 MTAP-deleted; class symbols; read-out: CC50
In short: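 Luminescent ATP readout (CellTiter-Glo) after 7 days of continuous compound exposure gives the CC50 value. Cells were plated onto pre-dispensed DMSO dilution series of the PRMT5 inhibitors and kept at 37 °C in 5% CO2.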

Compound	CC50 [nM]
COc1ccc2c(c1)CO[C@H]1CCCN(C(=O)c3cc4c(cc3F)nc(N)c3cncn34)[C@@H]21 (single isomer, unassigned) [Ff-390]	< 100
C[C@@H]1C[C@@H]2Cc3nc(C(F)(F)F)ccc3[C@@H]2N(C(=O)c2cc3c(cc2F)nc(N)c2cncn23)C1 (single isomer, unassigned) [Ff-393]	< 100
Nc1nc2cc(F)c(C(=O)N3CCC[C@H]4Oc5cc(OC(F)(F)F)ccc5[C@H]43)cc2n2cncc12 (single isomer, unassigned) [Ff-394]	100 to 1000
Nc1nc2cc(F)c(C(=O)N3CCC[C@@H]4Oc5cc(OC(F)(F)F)ccc5[C@@H]43)cc2n2cncc12 (single isomer, unassigned) [Ff-395]	< 100
Nc1nc2cc(F)c(C(=O)N3CCC[C@@H]4Oc5cc(OC(F)(F)F)c(F)cc5[C@@H]43)cc2n2cncc12 (single isomer, unassigned) [Ff-396]	< 100
Nc1nc2cc(F)c(C(=O)N3CCC[C@H]4Oc5cc(OC(F)(F)F)c(F)cc5[C@H]43)cc2n2cncc12 (single isomer, unassigned) [Ff-397]	100 to 1000
CN(C(=O)c1cc2c(cc1F)nc(N)c1cncn12)[C@@H]1CCc2cc(C(F)(F)F)ccc21 (single isomer, unassigned) [Ff-398]	< 100
Cc1ncn2c1c(N)nc1ccc(C(=O)N3CCC[C@@H]4Oc5cc(OC(F)(F)F)ccc5[C@@H]43)cc12 (single isomer, unassigned) [Ff-400]	< 100
Cc1ncc2c(N)nc3cnc(C(=O)N4C[C@@H](C)O[C@@H]5Cc6cc(Cl)ccc6[C@@H]54)cc3n12 (single isomer, unassigned) [Ff-463]	100 to 1000
Cc1ncc2c(N)nc3cnc(C(=O)N4C[C@H](C)O[C@@H]5Cc6cc(Cl)ccc6[C@@H]54)cc3n12 (single isomer, unassigned) [Ff-464]	100 to 1000
Nc1nc2cc(F)c(C(=O)N3CCO[C@@H]4Cc5cc(F)ccc5[C@@H]43)cc2n2cncc12 (single isomer, unassigned) [Ff-467]	< 100
C[C@@H]1OC[C@H](N(C)C(=O)c2ccc3nc(N)c4cncn4c3c2)c2ccc(C(F)(F)F)cc21 (single isomer, unassigned) [Ff-470]	< 100
C[C@H]1OC[C@@H](N(C)C(=O)c2ccc3nc(N)c4cncn4c3c2)c2ccc(C(F)(F)F)cc21 (single isomer, unassigned) [Ff-471]	< 100
CN(C(=O)c1cc2c(cc1F)nc(N)c1cncn12)[C@@H]1COc2cc([C@@H]3C[C@H]3C#N)ccc21 (single isomer, unassigned) [Ff-480]	< 100
CN(C(=O)c1cc2c(cc1F)nc(N)c1cncn12)[C@@H]1COc2cc([C@H]3C[C@@H]3C#N)ccc21 (single isomer, unassigned) [Ff-481]	< 100
C[C@@H]1CC[C@@H]2Oc3cc(OC(F)(F)F)ccc3[C@@H]2N1C(=O)c1cc2c(cc1F)nc(N)c1cncn12 (single isomer, unassigned) [Ff-491]	< 100
CN(C(=O)c1cc2c(cc1F)nc(N)c1cnc(Br)n12)[C@@H]1COc2cc(C(F)(F)F)ccc21 (single isomer, unassigned) [Ff-493]	100 to 1000

Compound	CC50 [nM]
CN(C(=O)c1cc2c(cc1F)nc(N)c1c(Br)ncn12)[C@@H]1COc2cc(C(F)(F)F)ccc21 (single isomer, unassigned) [Ff-494]	100 to 1000
Nc1nc2cc(F)c(C(=O)N3CCC[C@@H]4Oc5cc(C(F)(F)F)ccc5[C@@H]43)cc2n2c(Br)ncc12 (single isomer, unassigned) [Ff-495]	100 to 1000
C[C@H]1CN(C(=O)c2cc3c(cc2F)nc(N)c2cnc(Br)n23)[C@H]2c3ccc(C(F)(F)F)cc3C[C@H]2O1 (single isomer, unassigned) [Ff-496]	100 to 1000
CN(C(=O)c1cc2c(cc1F)nc(N)c1cncn12)[C@@H]1COc2cc([C@@H]3C[C@H]3C(F)F)ccc21 (single isomer, unassigned) [Ff-504]	< 100
CN(C(=O)c1cc2c(cc1F)nc(N)c1cncn12)[C@@H]1COc2cc([C@H]3C[C@@H]3C(F)F)ccc21 (single isomer, unassigned) [Ff-505]	< 100
Nc1nc2cc(F)c(C(=O)N3CCOC[C@@H]3c3ccc(C(F)(F)F)cn3)cc2n2cncc12 (single isomer, unassigned) [Ff-547]	< 100
Nc1nc2cc(F)c(C(=O)N3CCOC[C@@H]3c3ccc(OC(F)(F)F)cc3)cc2n2cncc12 (single isomer, unassigned) [Ff-555]	< 100
Nc1nc2cc(F)c(C(=O)N3CCOC[C@H]3c3ccc(OC(F)(F)F)cc3)cc2n2cncc12 (single isomer, unassigned) [Ff-556]	100 to 1000
CN(C(=O)c1cc2c(cc1F)nc(N)c1cncn12)[C@@H]1COc2cc(OC(F)(F)F)ccc21 (single isomer, unassigned) [Ff-557]	< 100
CN(C(=O)c1cc2c(cc1F)nc(N)c1cncn12)[C@H]1COc2cc(OC(F)(F)F)ccc21 (single isomer, unassigned) [Ff-558]	100 to 1000
CN(C(=O)c1cc2c(cc1F)nc(N)c1cncn12)[C@@H]1COc2cc(OC(F)F)ccc21 (single isomer, unassigned) [Ff-559]	< 100
CN(C(=O)c1cc2c(cc1F)nc(N)c1cncn12)[C@@H]1COc2cc(Cl)c(F)cc21 (single isomer, unassigned) [Ff-597]	< 100
CN(C(=O)c1cc2c(cc1F)nc(N)c1cncn12)[C@@H]1COc2cc(C(F)(F)F)cc(F)c21 (single isomer, unassigned) [Ff-601]	< 100
CN(C(=O)c1cc2c(cc1F)nc(N)c1cncn12)[C@@H]1COc2cc(Cl)c(Cl)cc21 (single isomer, unassigned) [Ff-605]	< 100
CN(C(=O)c1cc2c(cc1F)nc(N)c1cncn12)[C@@H]1COc2c1ccc(Cl)c2Cl (single isomer, unassigned) [Ff-606]	100 to 1000
Cc1ncn2c1c(N)nc1cnc(C(=O)N3[C@H](C)CC[C@@H]4Oc5cc(C(F)(F)F)ccc5[C@@H]43)cc12 (single isomer, unassigned) [Ff-611]	< 100

Same assay, conditions: Homo sapiens, HCT-116; cell viability, HCT116 MTAP-deleted; class symbols; read-out: CC50

Compound	CC50 [nM]
C[C@H]1CN(C(=O)c2cc3c(cc2F)nc(N)c2cncn23)[C@H]2c3cc(F)c(OC(F)(F)F)cc3C[C@H]2O1 (single isomer, unassigned) [Ff-198]	< 100
Nc1nc2cc(F)c(C(=O)N3CC(F)(F)CC[C@@H]3c3ccc(C(F)(F)F)cn3)cc2n2cncc12 (single isomer, unassigned) [Ff-242]	< 100
Nc1nc2cc(F)c(C(=O)N3CC(F)(F)CC[C@H]3c3ccc(C(F)(F)F)cn3)cc2n2cncc12 (single isomer, unassigned) [Ff-243]	100 to 1000
Nc1nc2cc(F)c(C(=O)N3C[C@H](F)CC[C@@H]3c3ccc(C(F)(F)F)cn3)cc2n2cncc12 (single isomer, unassigned) [Ff-244]	< 100
Nc1nc2cc(F)c(C(=O)N3C[C@H](F)CC[C@H]3c3ccc(C(F)(F)F)cn3)cc2n2cncc12 (single isomer, unassigned) [Ff-245]	100 to 1000
C[C@@H]1CN(C(=O)c2cc3c(cc2F)nc(N)c2cncn23)[C@H]2c3cc(F)c(C(F)(F)F)cc3C[C@H]2O1 (single isomer, unassigned) [Ff-328]	< 100
C[C@H]1CN(C(=O)c2cc3c(cc2F)nc(N)c2cncn23)[C@H]2c3cc(F)c(C(F)(F)F)cc3C[C@H]2O1 (single isomer, unassigned) [Ff-329]	< 100
